Experimental data from article PMC5218480 (PLoS ONE, 2017).

System: MV-4-11 cells
Assay: Gene expression microarray analysis (Affymetrix PrimeView) and GSEA
Type: cell-based, human
Parameters: RFU PODN (11730768_x_at) / Fold change /veh PODN (11730768_x_at) / RFU LINC00158 (11744669_a_at) / Fold change /veh LINC00158 (11744669_a_at) / RFU DUSP10 (11751237_a_at) / Fold change /veh DUSP10 (11751237_a_at) / RFU ID3 (11757404_x_at) / Fold change /veh ID3 (11757404_x_at) / RFU PLEKHG5 (11737974_s_at) / Fold change /veh PLEKHG5 (11737974_s_at) / RFU LRRC4B (11730491_at) / Fold change /veh LRRC4B (11730491_at) / RFU GIMAP4 (11747438_a_at) / Fold change /veh GIMAP4 (11747438_a_at) / RFU KRT8 (11758183_x_at) / Fold change /veh KRT8 (11758183_x_at) / RFU CNN1 (11734310_a_at) / Fold change /veh CNN1 (11734310_a_at) / RFU VPS37D (11726825_at) / Fold change /veh VPS37D (11726825_at) / RFU C10orf10 (11716522_x_at) / Fold change /veh C10orf10 (11716522_x_at) / RFU KIR2DL2 /// KIR2DL4 /// KIR2DL5A /// KIR2DL5B /// KIR2DS1 /// KIR2DS2 /// KIR2DS3 /// KIR2DS4 /// KIR3DL3 /// KIR3DL3 /// KIR3DS1 (11738374_at) / Fold change /veh KIR2DL2 /// KIR2DL4 /// KIR2DL5A /// KIR2DL5B /// KIR2DS1 /// KIR2DS2 /// KIR2DS3 /// KIR2DS4 /// KIR3DL3 /// KIR3DL3 /// KIR3DS1 (11738374_at) / RFU C1QL1 (11718748_at) / Fold change /veh C1QL1 (11718748_at) / RFU TMPRSS4 (11747572_a_at) / Fold change /veh TMPRSS4 (11747572_a_at) / RFU HAMP (11756126_x_at) / Fold change /veh HAMP (11756126_x_at) / RFU RNFT2 (11725882_a_at) / Fold change /veh RNFT2 (11725882_a_at) / RFU NR4A2 (11747474_a_at) / Fold change /veh NR4A2 (11747474_a_at) / RFU ABCC12 (11746883_a_at) / Fold change /veh ABCC12 (11746883_a_at) / RFU TMEM136 (11760407_x_at) / Fold change /veh TMEM136 (11760407_x_at) / RFU CLDN22 /// WWC2 (11732394_at) / Fold change /veh CLDN22 /// WWC2 (11732394_at) / RFU HLA-DPB1 (11760878_x_at) / Fold change /veh HLA-DPB1 (11760878_x_at) / RFU SPINT1 (11716480_a_at) / Fold change /veh SPINT1 (11716480_a_at) / RFU GAP43 (11754022_s_at) / Fold change /veh GAP43 (11754022_s_at) / RFU A4GNT (11735810_at) / Fold change /veh A4GNT (11735810_at) / RFU PRB3 (11715151_x_at) / Fold change /veh PRB3 (11715151_x_at) / RFU TUBB4B (11761932_at) / Fold change /veh TUBB4B (11761932_at) / RFU CAPN14 (11732068_a_at) / Fold change /veh CAPN14 (11732068_a_at) / RFU TMCC2 (11721928_a_at) / Fold change /veh TMCC2 (11721928_a_at) / RFU IRGQ (11745062_a_at) / Fold change /veh IRGQ (11745062_a_at) / RFU FAM174B (11720279_a_at) / Fold change /veh FAM174B (11720279_a_at) / RFU TMPRSS4 (11748680_a_at) / Fold change /veh TMPRSS4 (11748680_a_at) / RFU FAM212B (11763350_a_at) / Fold change /veh FAM212B (11763350_a_at) / RFU PLEKHG5 (11743358_a_at) / Fold change /veh PLEKHG5 (11743358_a_at) / RFU ZSCAN30 (11745921_a_at) / Fold change /veh ZSCAN30 (11745921_a_at) / RFU CMKLR1 (11741424_a_at) / Fold change /veh CMKLR1 (11741424_a_at) / RFU LOC101060620 /// MAPK8IP1 (11723275_at) / Fold change /veh LOC101060620 /// MAPK8IP1 (11723275_at) / RFU SPTSSB (11747773_x_at) / Fold change /veh SPTSSB (11747773_x_at) / RFU PRSS12 (11739890_at) / Fold change /veh PRSS12 (11739890_at) / RFU BIN1 (11741810_x_at) / Fold change /veh BIN1 (11741810_x_at) / RFU WNT11 (11732464_a_at) / Fold change /veh WNT11 (11732464_a_at) / RFU C10orf10 (11716521_a_at) / Fold change /veh C10orf10 (11716521_a_at) / RFU C5orf56 (11738089_at) / Fold change /veh C5orf56 (11738089_at) / RFU CYB561 (11721691_x_at) / Fold change /veh CYB561 (11721691_x_at) / RFU ANKRD19P (11752326_a_at) / Fold change /veh ANKRD19P (11752326_a_at) / RFU OR2T12 /// OR2T33 /// OR2T8 (11738714_s_at) / Fold change /veh OR2T12 /// OR2T33 /// OR2T8 (11738714_s_at) / RFU VCAN (11748164_a_at) / Fold change /veh VCAN (11748164_a_at) / RFU JSRP1 (11732532_at) / Fold change /veh JSRP1 (11732532_at) / RFU KRTAP10-11 (11738290_x_at) / Fold change /veh KRTAP10-11 (11738290_x_at) / RFU MYO3A (11730013_a_at) / Fold change /veh MYO3A (11730013_a_at) / RFU EBF3 (11725865_a_at) / Fold change /veh EBF3 (11725865_a_at) / RFU CAMK2N1 (11719241_x_at) / Fold change /veh CAMK2N1 (11719241_x_at) / RFU C5orf56 (11738088_a_at) / Fold change /veh C5orf56 (11738088_a_at) / RFU OLFML3 (11715873_a_at) / Fold change /veh OLFML3 (11715873_a_at) / RFU LOC100653217 /// NTM (11731650_a_at) / Fold change /veh LOC100653217 /// NTM (11731650_a_at) / RFU MAPK11 (11762145_a_at) / Fold change /veh MAPK11 (11762145_a_at) / RFU FIZ1 (11724087_x_at) / Fold change /veh FIZ1 (11724087_x_at) / RFU OASL (11726364_x_at) / Fold change /veh OASL (11726364_x_at) / RFU SOX15 (11748057_x_at) / Fold change /veh SOX15 (11748057_x_at) / RFU CD79A (11719716_a_at) / Fold change /veh CD79A (11719716_a_at) / RFU HIST1H1D (11736915_at) / Fold change /veh HIST1H1D (11736915_at) / RFU CASKIN2 (11723855_a_at) / Fold change /veh CASKIN2 (11723855_a_at) / RFU LOC730098 (11760151_x_at) / Fold change /veh LOC730098 (11760151_x_at) / RFU OR4N2 (11742367_at) / Fold change /veh OR4N2 (11742367_at) / RFU PRRT2 (11749266_a_at) / Fold change /veh PRRT2 (11749266_a_at) / RFU SNX32 (11753110_a_at) / Fold change /veh SNX32 (11753110_a_at) / RFU CDHR5 (11726645_a_at) / Fold change /veh CDHR5 (11726645_a_at) / RFU RCAN1 (11760418_a_at) / Fold change /veh RCAN1 (11760418_a_at) / RFU FAM167A (11723789_a_at) / Fold change /veh FAM167A (11723789_a_at) / RFU FAM26E (11764081_at) / Fold change /veh FAM26E (11764081_at) / RFU ISYNA1 (11749810_s_at) / Fold change /veh ISYNA1 (11749810_s_at) / RFU ACY1 (11761880_at) / Fold change /veh ACY1 (11761880_at) / RFU 11764098_at / Fold change /veh 11764098_at / RFU SAMD14 (11745864_x_at) / Fold change /veh SAMD14 (11745864_x_at) / RFU NPB (11741838_a_at) / Fold change /veh NPB (11741838_a_at) / RFU TMPRSS6 (11731388_a_at) / Fold change /veh TMPRSS6 (11731388_a_at) / RFU KRTAP10-2 (11738614_at) / Fold change /veh KRTAP10-2 (11738614_at) / RFU ARHGAP8 /// PRR5-ARHGAP8 (11727945_x_at) / Fold change /veh ARHGAP8 /// PRR5-ARHGAP8 (11727945_x_at) / RFU KRTAP5-7 /// NADSYN1 (11734609_at) / Fold change /veh KRTAP5-7 /// NADSYN1 (11734609_at) / RFU RASL12 (11751679_a_at) / Fold change /veh RASL12 (11751679_a_at) / RFU CDKN2B (11736163_a_at) / Fold change /veh CDKN2B (11736163_a_at) / RFU PRF1 (11729649_at) / Fold change /veh PRF1 (11729649_at) / RFU, ZNF638 /// ZNF638-IT1 / Fold change vs veh, ZNF638 /// ZNF638-IT1 / RFU, PANK3 / Fold change vs veh, PANK3 / RFU, SH3YL1 / Fold change vs veh, SH3YL1 / RFU, ZEB2 / Fold change vs veh, ZEB2 / RFU, NRIP1 / Fold change vs veh, NRIP1 / RFU, PTTG1IP / Fold change vs veh, PTTG1IP / RFU, CAPN2 / Fold change vs veh, CAPN2 / RFU, MED14 / Fold change vs veh, MED14 / RFU, SNORA58 / Fold change vs veh, SNORA58 / RFU, C1orf63 / Fold change vs veh, C1orf63 / RFU, LRRFIP1 / Fold change vs veh, LRRFIP1 / RFU, NDUFAF7 / Fold change vs veh, NDUFAF7 / RFU, SLC12A2 / Fold change vs veh, SLC12A2 / RFU, IBTK / Fold change vs veh, IBTK / RFU, ESF1 / Fold change vs veh, ESF1 / Fold change vs veh, TMEM50B / RFU, TAOK1 / Fold change vs veh, TAOK1 / RFU, ACBD3 / Fold change vs veh, ACBD3 / RFU, TMA16 / Fold change vs veh, TMA16 / RFU, RWDD3 / Fold change vs veh, RWDD3 / RFU, BCAT1 / Fold change vs veh, BCAT1 / RFU, EDEM3 / Fold change vs veh, EDEM3 / RFU, TMEM33 / Fold change vs veh, TMEM33 / RFU, WDR75 / Fold change vs veh, WDR75 / RFU, AHCTF1 / Fold change vs veh, AHCTF1 / RFU, TFRC / Fold change vs veh, TFRC / RFU, ZDHHC17 / Fold change vs veh, ZDHHC17 / RFU, NOM1 / Fold change vs veh, NOM1 / RFU, ARL8B / Fold change vs veh, ARL8B / RFU, ZBTB11 / Fold change vs veh, ZBTB11 / RFU, TAMM41 / Fold change vs veh, TAMM41 / RFU, KIAA1704 /// LOC100996395 / Fold change vs veh, KIAA1704 /// LOC100996395 / RFU, ING1 / Fold change vs veh, ING1 / RFU, TRMT61B / Fold change vs veh, TRMT61B / RFU, FUBP3 / Fold change vs veh, FUBP3 / RFU, TP53 / Fold change vs veh, TP53 / RFU, TNKS2 / Fold change vs veh, TNKS2 / RFU, ZFP14 / Fold change vs veh, ZFP14 / RFU, ACTR2 / Fold change vs veh, ACTR2 / RFU, PPP3R1 / Fold change vs veh, PPP3R1 / RFU, PIK3R1 / Fold change vs veh, PIK3R1 / RFU, HNRNPA1 / Fold change vs veh, HNRNPA1 / RFU, RNF170 / Fold change vs veh, RNF170 / RFU, ZNF28 / Fold change vs veh, ZNF28 / RFU, RNGTT / Fold change vs veh, RNGTT / RFU, OGT / Fold change vs veh, OGT / RFU, BRD1 / Fold change vs veh, BRD1 / RFU, MARS / Fold change vs veh, MARS / RFU, ZNF655 / Fold change vs veh, ZNF655 / RFU, FAHD1 / Fold change vs veh, FAHD1 / RFU, BDP1 / Fold change vs veh, BDP1 / RFU, LRRCC1 / Fold change vs veh, LRRCC1 / RFU, ARID1A / Fold change vs veh, ARID1A / RFU, ZNF146 / Fold change vs veh, ZNF146 / RFU, ZNF330 / Fold change vs veh, ZNF330 / RFU, GPN3 / Fold change vs veh, GPN3 / RFU, C9orf123 / Fold change vs veh, C9orf123 / RFU, N4BP2L2 / Fold change vs veh, N4BP2L2 / RFU, ARFIP1 / Fold change vs veh, ARFIP1 / RFU, FAM179B / Fold change vs veh, FAM179B / RFU, BCL10 / Fold change vs veh, BCL10 / RFU, UHRF1BP1L / Fold change vs veh, UHRF1BP1L / RFU, BET1 / Fold change vs veh, BET1 / RFU, CNOT2 / Fold change vs veh, CNOT2 / RFU, ZNF268 / Fold change vs veh, ZNF268 / Fold change vs veh, ZNF507 / RFU, DGCR2 / Fold change vs veh, DGCR2 / RFU, WDSUB1 / Fold change vs veh, WDSUB1 / Fold change vs veh, HSP90B1 /// MIR3652 / RFU, ADSS / Fold change vs veh, ADSS / RFU, GK / Fold change vs veh, GK / RFU, ZNF148 / Fold change vs veh, ZNF148 / RFU, TAF9 / Fold change vs veh, TAF9 / RFU, SLC1A5 / Fold change vs veh, SLC1A5 / RFU, SLMO2 / Fold change vs veh, SLMO2 / RFU, ABCC4 / Fold change vs veh, ABCC4 / RFU, LOC101060439 /// RAP1B / Fold change vs veh, LOC101060439 /// RAP1B / RFU, RFX7 / Fold change vs veh, RFX7 / RFU, GTPBP10 / Fold change vs veh, GTPBP10 / RFU, CNEP1R1 / Fold change vs veh, CNEP1R1 / RFU, BIVM-ERCC5 /// ERCC5 / Fold change vs veh, BIVM-ERCC5 /// ERCC5 / RFU, ILF3 / Fold change vs veh, ILF3 / RFU 11762660_at / Fold change /veh 11762660_at / RFU VCAN (11757783_s_at) / Fold change /veh VCAN (11757783_s_at) / RFU DDX43 (11728927_at) / Fold change /veh DDX43 (11728927_at) / RFU KRT8 (11758188_x_at) / Fold change /veh KRT8 (11758188_x_at) / RFU NKD1 (11759106_at) / Fold change /veh NKD1 (11759106_at) / RFU SRD5A1 (11742802_a_at) / Fold change /veh SRD5A1 (11742802_a_at) / RFU TPSAB1 /// TPSB2 (11721975_s_at) / Fold change /veh TPSAB1 /// TPSB2 (11721975_s_at) / RFU GSTM3 (11746129_a_at) / Fold change /veh GSTM3 (11746129_a_at) / RFU IL23R (11737362_x_at) / Fold change /veh IL23R (11737362_x_at) / RFU TMEM51 (11727254_a_at) / Fold change /veh TMEM51 (11727254_a_at) / RFU PIWIL2 (11732686_x_at) / Fold change /veh PIWIL2 (11732686_x_at) / RFU ORM1 (11744905_x_at) / Fold change /veh ORM1 (11744905_x_at) / RFU CCDC152 (11743942_at) / Fold change /veh CCDC152 (11743942_at) / RFU ECM1 (11717891_a_at) / Fold change /veh ECM1 (11717891_a_at) / RFU IL23R (11748794_a_at) / Fold change /veh IL23R (11748794_a_at) / RFU TNFAIP8L3 (11732012_x_at) / Fold change /veh TNFAIP8L3 (11732012_x_at) / RFU MBOAT4 (11741988_at) / Fold change /veh MBOAT4 (11741988_at) / RFU 11764193_at / Fold change /veh 11764193_at / RFU TMEM53 (11763286_at) / Fold change /veh TMEM53 (11763286_at) / RFU MAGEB2 (11727129_at) / Fold change /veh MAGEB2 (11727129_at) / RFU TMEM200A (11744735_a_at) / Fold change /veh TMEM200A (11744735_a_at) / RFU CCDC152 (11751479_a_at) / Fold change /veh CCDC152 (11751479_a_at) / RFU FAM211A (11726209_a_at) / Fold change /veh FAM211A (11726209_a_at) / RFU RGS16 (11746705_a_at) / Fold change /veh RGS16 (11746705_a_at) / RFU VCAN (11755009_s_at) / Fold change /veh VCAN (11755009_s_at) / RFU RHOB (11743442_s_at) / Fold change /veh RHOB (11743442_s_at) / RFU RGS16 (11720943_a_at) / Fold change /veh RGS16 (11720943_a_at) / RFU RGS16 (11720944_at) / Fold change /veh RGS16 (11720944_at) / RFU, VPS4B / Fold change vs veh, VPS4B / RFU, CREB1 / Fold change vs veh, CREB1 / RFU, DNAJC13 / Fold change vs veh, DNAJC13 / RFU, GNAQ / Fold change vs veh, GNAQ / RFU, CDK5R1 / Fold change vs veh, CDK5R1 / RFU, ZRANB3 / Fold change vs veh, ZRANB3 / RFU, CUL4A / Fold change vs veh, CUL4A / RFU, CCNY / Fold change vs veh, CCNY / RFU, UFL1 / Fold change vs veh, UFL1 / RFU, COG3 / Fold change vs veh, COG3 / RFU, DIAPH2 / Fold change vs veh, DIAPH2 / RFU, SKA2 / Fold change vs veh, SKA2 / RFU, AFF3 / Fold change vs veh, AFF3 / RFU, LMF1 / Fold change vs veh, LMF1 / RFU, IPO11 / Fold change vs veh, IPO11 / RFU, DFFB / Fold change vs veh, DFFB / RFU, FOXP1 / Fold change vs veh, FOXP1 / RFU, CARD8 / Fold change vs veh, CARD8 / RFU, STRN3 / Fold change vs veh, STRN3 / RFU, ADK / Fold change vs veh, ADK / RFU, RASSF2 / Fold change vs veh, RASSF2 / RFU, WIPF1 / Fold change vs veh, WIPF1 / RFU, LARP1B / Fold change vs veh, LARP1B / RFU, RASA1 / Fold change vs veh, RASA1 / RFU, RB1 / Fold change vs veh, RB1 / RFU, PPFIA1 / Fold change vs veh, PPFIA1 / RFU, MAT2A / Fold change vs veh, MAT2A / RFU, CCT5 / Fold change vs veh, CCT5 / RFU, WDR92 / Fold change vs veh, WDR92 / RFU, CUX1 / Fold change vs veh, CUX1 / RFU, TTC7A / Fold change vs veh, TTC7A / RFU, TMEM135 / Fold change vs veh, TMEM135 / RFU, DEPTOR / Fold change vs veh, DEPTOR / RFU, CPM / Fold change vs veh, CPM / RFU, DNAJB6 / Fold change vs veh, DNAJB6 / RFU, CACNA2D3 / Fold change vs veh, CACNA2D3 / RFU, DTX4 / Fold change vs veh, DTX4 / RFU, TFCP2 / Fold change vs veh, TFCP2 / RFU, GMCL1 /// GMCL1P1 / Fold change vs veh, GMCL1 /// GMCL1P1 / RFU, AEBP2 / Fold change vs veh, AEBP2 / RFU, SNHG1 /// SNORD22 /// SNORD25 /// SNORD26 /// SNORD27 /// SNORD28 /// SNORD29 /// SNORD31 / Fold change vs veh, SNHG1 /// SNORD22 /// SNORD25 /// SNORD26 /// SNORD27 /// SNORD28 /// SNORD29 /// SNORD31 / Fold change (Aza/veh), C12orf56 (ProbeSet 11735607_a_at) / Fold change (ACY-1035/veh), C12orf56 (ProbeSet 11735607_a_at) / Fold change (Aza/veh), FGFR1OP (ProbeSet 11751329_s_at) / Fold change (ACY-1035/veh), FGFR1OP (ProbeSet 11751329_s_at) / Fold change (Aza/veh), VPS36 (ProbeSet 11739960_a_at) / Fold change (ACY-1035/veh), VPS36 (ProbeSet 11739960_a_at) / RFU SYPL1 (11715823_x_at) / Fold change /veh SYPL1 (11715823_x_at) / RFU IGFBP7 (11715501_s_at) / Fold change /veh IGFBP7 (11715501_s_at) / RFU REEP3 (11722064_at) / Fold change /veh REEP3 (11722064_at) / RFU IGLL1 (11728026_x_at) / Fold change /veh IGLL1 (11728026_x_at): dose or concentration left out as unconfirmed
Conditions: ProbeSet 11738335_x_at; LIST B

Nc1ncn([C@@H]2O[C@H](CO)[C@@H](O)[C@H]2O)c(=O)n1 [azacitidine]
Fold change vs veh, TP53: 0.89
